Results: ChEMBL document CHEMBL1201862, “PubChem BioAssay data set” (2004)
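1) Cells in 96-well plates. 2) Compound, 48 h, 5 concentrations. 3) Linear interpolation between surrounding doses. 4) Unreached endpoint = highest concentration. GI50 marks 50% less growth.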 Calls of active or inactive are those of the source. Cut-off read from the data, not from the text of the source: active = GI50 up to about 1.1 µM and inactive = higher.

What was measured:
Experiment in all cases: DTP human tumour cell line panel, 48 h
[1] = test system: XF498
[2] = test system: OVCAR-4
[3] = test system: DMS-273
[4] = test system: SW-620
[5] = test system: NCI/ADR-RES
[6] = test system: RPMI-8226
[7] = test system: SK-MEL-2
[8] = test system: NCI-H522
[9] = test system: KM-20L2
[10] = test system: UACC-62
[11] = test system: HOP-18
[12] = test system: HCC 2998
[13] = test system: OVCAR-3
[14] = test system: HOP-92
[15] = test system: DMS-114
[16] = test system: HCT-116
[17] = test system: OVCAR-5
[18] = test system: SNB-78
[19] = test system: UACC-257
[20] = test system: UO-31
[21] = test system: Malme-3M
[22] = test system: OVCAR-8
[23] = test system: LOX IMVI
[24] = test system: MOLT-4
[25] = test system: NCI-H460
[26] = test system: RXF 393
[27] = test system: SF-539
[28] = test system: CCRF-CEM
[29] = test system: NCI-H23
[30] = test system: SN12C
[31] = test system: HT-29
[32] = test system: M19-MEL
[33] = test system: K562
[34] = test system: SK-MEL-28
[35] = test system: SK-OV-3
[36] = test system: HL-60
[37] = test system: SNB-19
[38] = test system: HCT-15
[39] = test system: EKVX
[40] = test system: MCF7
[41] = test system: KM12
[42] = test system: COLO 205
[43] = test system: A498
[44] = test system: U-251
[45] = test system: SF-295
[46] = test system: NCI-H226
[47] = test system: SF-268
[48] = test system: DLD-1
[49] = test system: SK-MEL-5
[50] = test system: A549
[51] = test system: SNB-75
[52] = test system: CAKI-1
[53] = test system: IGROV-1
[54] = test system: HOP-62

Question: With CCCCN(C)/N=N/c1[nH]cnc1C(N)=O as the molecule, how does the GI50 [1] read?
Answer: 32.4 µM (inactive)

Question: What about the GI50 [2] of the same molecule?
Answer: 68.9 µM (inactive)

Question: And the GI50 [3]?
Answer: 58.7 µM (inactive)

Question: And the GI50 [4]?
Answer: > 100 µM (inactive)

Question: What about the GI50 [5] of the same molecule?
Answer: > 100 µM (inactive)

Question: And the GI50 [6]?
Answer: > 100 µM (inactive)

Question: And the GI50 [7]?
Answer: 44.6 µM (inactive)

Question: What about the GI50 [8] of the same molecule?
Answer: > 100 µM (inactive)

Question: What about the GI50 [9] of the same molecule?
Answer: > 50.2 µM (inactive)

Question: And the GI50 [10]?
Answer: 57.1 µM (inactive)

Question: And the GI50 [11]?
Answer: > 100 µM (inactive)

Question: And the GI50 [12]?
Answer: > 94.4 µM (inactive)

Question: And the GI50 [13]?
Answer: 99.5 µM (inactive)

Question: What about the GI50 [14] of the same molecule?
Answer: 47.6 µM (inactive)

Question: What about the GI50 [15] of the same molecule?
Answer: > 100 µM (inactive)

Question: And the GI50 [16]?
Answer: > 100 µM (inactive)

Question: What about the GI50 [17] of the same molecule?
Answer: > 85.1 µM (inactive)

Question: What about the GI50 [18] of the same molecule?
Answer: > 100 µM (inactive)

Question: What about the GI50 [19] of the same molecule?
Answer: > 73.5 µM (inactive)

Question: And the GI50 [20]?
Answer: > 100 µM (inactive)

Question: And the GI50 [21]?
Answer: > 86.9 µM (inactive)

Question: What about the GI50 [22] of the same molecule?
Answer: 78.2 µM (inactive)

Question: What about the GI50 [23] of the same molecule?
Answer: 36.7 µM (inactive)

Question: And the GI50 [24]?
Answer: 41.2 µM (inactive)

Question: And the GI50 [25]?
Answer: > 100 µM (inactive)

Question: What about the GI50 [26] of the same molecule?
Answer: > 66.7 µM (inactive)

Question: What about the GI50 [27] of the same molecule?
Answer: > 100 µM (inactive)

Question: And the GI50 [28]?
Answer: 52.4 µM (inactive)

Question: What about the GI50 [29] of the same molecule?
Answer: > 100 µM (inactive)

Question: What about the GI50 [30] of the same molecule?
Answer: > 100 µM (inactive)

Question: What about the GI50 [31] of the same molecule?
Answer: > 100 µM (inactive)

Question: What about the GI50 [32] of the same molecule?
Answer: > 100 µM (inactive)

Question: What about the GI50 [33] of the same molecule?
Answer: > 80.7 µM (inactive)

Question: And the GI50 [34]?
Answer: > 100 µM (inactive)

Question: What about the GI50 [35] of the same molecule?
Answer: 35.8 µM (inactive)

Question: What about the GI50 [36] of the same molecule?
Answer: 60.7 µM (inactive)

Question: And the GI50 [37]?
Answer: > 100 µM (inactive)

Question: And the GI50 [38]?
Answer: > 100 µM

Question: And the GI50 [39]?
Answer: > 100 µM (inactive)

Question: What about the GI50 [40] of the same molecule?
Answer: > 100 µM (inactive)

Question: What about the GI50 [41] of the same molecule?
Answer: > 100 µM (inactive)

Question: And the GI50 [42]?
Answer: > 100 µM (inactive)

Question: And the GI50 [43]?
Answer: > 71.1 µM (inactive)

Question: What about the GI50 [44] of the same molecule?
Answer: > 100 µM (inactive)

Question: What about the GI50 [45] of the same molecule?
Answer: > 94.2 µM (inactive)

Question: What about the GI50 [46] of the same molecule?
Answer: > 100 µM (inactive)

Question: And the GI50 [47]?
Answer: > 100 µM (inactive)

Question: And the GI50 [48]?
Answer: > 100 µM (inactive)

Question: What about the GI50 [49] of the same molecule?
Answer: > 100 µM (inactive)

Question: What about the GI50 [50] of the same molecule?
Answer: > 100 µM (inactive)

Question: What about the GI50 [51] of the same molecule?
Answer: > 100 µM (inactive)

Question: And the GI50 [52]?
Answer: 20.3 µM (inactive)

Question: What about the GI50 [53] of the same molecule?
Answer: > 77.8 µM (inactive)

Question: What does the source list for O=C1C2=C(C3=NCCc4c[nH]c1c43)c1c(cc(Br)c(O)c1Br)CCN2?
Answer: GI50 [1]: 13.9 µM (inactive); GI50 [2]: 11 µM (inactive); GI50 [3]: 12.6 µM (inactive); GI50 [4]: 15.2 µM (inactive); GI50 [5]: 14.5 µM (inactive); GI50 [6]: 5.01 µM (inactive); GI50 [7]: 13.6 µM (inactive); GI50 [8]: 2 µM (inactive); GI50 [9]: 5.07 µM (inactive); GI50 [10]: 3.47 µM (inactive); GI50 [11]: 20 µM (inactive); GI50 [12]: 5.55 µM (inactive); GI50 [13]: 2.73 µM (inactive); GI50 [14]: 20.6 µM (inactive); GI50 [15]: 2.96 µM (inactive); GI50 [16]: 14.5 µM (inactive); GI50 [17]: 25.2 µM (inactive); GI50 [18]: 5.64 µM (inactive); GI50 [19]: 7.5 µM (inactive); GI50 [20]: 18.2 µM (inactive); GI50 [22]: 8.53 µM (inactive); GI50 [23]: 6.67 µM (inactive); GI50 [24]: 2.81 µM (inactive); GI50 [25]: 9.27 µM (inactive); GI50 [26]: 14.8 µM (inactive); GI50 [27]: 13.5 µM (inactive); GI50 [28]: 2.56 µM (inactive); GI50 [29]: 13.4 µM (inactive); GI50 [54]: 25.3 µM (inactive); GI50 [30]: 14.1 µM (inactive); GI50 [31]: 6.59 µM (inactive); GI50 [32]: 2.79 µM (inactive); GI50 [33]: 15 µM (inactive); GI50 [34]: 17.2 µM (inactive); GI50 [35]: 7.41 µM (inactive); GI50 [36]: 3.48 µM (inactive); GI50 [37]: 17.9 µM (inactive); GI50 [38]: 11.5 µM; GI50 [39]: 17.8 µM (inactive); GI50 [40]: 7.69 µM (inactive); GI50 [41]: 13.4 µM (inactive); GI50 [42]: 3.31 µM (inactive); GI50 [43]: 20.2 µM (inactive); GI50 [44]: 11.9 µM (inactive); GI50 [45]: 7.13 µM (inactive); GI50 [46]: 16.5 µM (inactive); GI50 [47]: 9.25 µM (inactive); GI50 [48]: 8.2 µM (inactive); GI50 [49]: 9.1 µM (inactive); GI50 [50]: 18.6 µM (inactive); GI50 [51]: 16.3 µM (inactive); GI50 [52]: 20.3 µM (inactive); GI50 [53]: 13.6 µM (inactive)
